# In US20110130355A1, “USE OF SOPHORICOSIDE IN THE MANUFACTURE OF MEDICAMENTS” (priority 2008, published 2011):
# Marks after values point to notes of the source that are not given here.
# What was measured:
# [1] = test system: articular cartilage of the knee joint; assay: Articular surface lesions of the knee joint (toluidine blue staining, image analysis); assay type: in vivo, SD rats; settings: OVX rats, 11 weeks; for lesion percentage for the articular surface, total: whole knee joint
# Protocol: 1. The Pathological Sections of the Knee Joints of Rats
# 1) The knee joints of rats were fixed in 4% PFA for 48 hours;
# 2) The samples were decalcified in 15% ethylenediamine tetraacetic acid (EDTA) for 15 days;
# The coronal sections were sectioned by a paraffin microtome (Leica, Model: RM2235) at thickness of 5 μm with the medial collateral ligament being used as a marker. The sections were transferred into warm water at 30° C., and plated on slides pre-treated with polylysine. The slides were transferred to an incubator at 65° C. for 3 hours and stored at ambient condition until use.
# 2) Staining: The sections were stained in 1% Ammonia Toluene blue for 5 minutes and rinsed with water for 10 minutes;
# The lesion lengths in the four weight-bearing articular cartilage surface lesion regions of medial and lateral femoral condyles and medial and lateral tibial plateaus were measured with Axioplan 2 microscopy imaging analysis system (Axioplan 2 multifunctional automatic fluorescent microscope, KS400 imaging analysis system Ver. 3.0, AxioCam digital camera at a resolution of 3900×3090) by two independent persons skilled in the imaging art (FIGS. 3A and 3B). The results were averaged. The lesion percentage for each of the four articular surfaces was calculated. Finally the total lesion percentage for the knee joint was calculated as:
# The lesion percentage for each part of the articular surface=lesion length/total length of the weight-bearing articular surface×100%.
# The lesion percentage for articular surface of the knee joint=total lesion length/total length of the articular surface×100%.
# ER-α = assay: Immunohistochemical staining of the estrogen receptor of articular chondrocytes, percentage of positive cells; assay type: in vivo, SD rats; settings: OVX rats, 11 weeks; for ER-α positive cells in the articular cartilage, micrograph in words: FIG. 7; for positive ratio for ER-α expression in the articular chondrocytes, Total: whole knee joint
# Protocol: 2) Elimination of endogenous peroxidases: The sections were treated with 3% H2O2-methanol for 10 minutes and washed by PBS for 5 minutes×3;
# 3) Blocking of Antigen: The sections were treated with 0.3% bovine serum albumin (BSA) for 30 minutes;
# The sections were incubated at 4° C. overnight and then washed by PBS for 5 minutes×3;
# 5) Secondary antibody: After the addition of the biotinylated secondary antibody (1:200) the sections were incubated at 37° C. for 30 minutes and then washed by PBS for 5 minutes×3;
# 6) Addition of SABC (Streptavidin Biotin Complex): After the addition of SABC (1:300) the sections were incubated at 37° C. for 30 minutes and then washed by PBS for 5 minutes×3;
# 7) Visualization: 75 μl of 3,3′-diaminobenzidine (DAB) was added per section. After incubation for 3-6 minutes, the sections were observed by microscopy;
# The average of the percentages for the four regions was regarded as the total positive cell percentage for the indicated knee joint, and the average of the percentages obtained from two persons was regarded as the final experimental result.
# The positive cell percentage=number of the positive chondrocytes in the field/total number of the chondrocytes in the field×100%.
# articular chondrocytes = assay: Apoptotic profiles of articular chondrocytes (TUNEL staining); assay type: in vivo, SD rats; settings: OVX rats, 11 weeks; for apoptotic cells in articular cartilage, in words: FIG. 10; for Apoptotic index of the articular chondrocytes, total: whole knee joint
# Description: When a cell is undergoing apoptosis, the chromosomal DNAs are fragmented in a gradual and staged manner. The chromosomal DNAs are firstly degraded into large fragments of 50-300 kb by endogenous nucleases. Next, about 30% of the chromosomal DNAs were randomly cleaved at internucleosomal regions by the Ca^2+ and Mg^2+ dependent endonucleases to form multimers of 180˜200 bp nucleosomal DNAs. The free 3′-ends resulted from DNA double-strand break or DNA single chain gapping can be labeled by adding a derivative formed by the deoxyribonucleotide and fluorescein, peroxidase, alkaline phosphatase by the terminal deoxynucleotidyl transferase. The apoptotic cells can be detected accordingly. Such methods are generally referred to as terminal deoxynucleotidyl transferase-mediated nick end labeling.
# 1) Section Dewaxing: The sections were placed in an incubator at 65° C. for 3 hours, and then immersed in xylene for 5 minutes×2, in 100% ethanol for 10 min×2, in 95% ethanol for 5 min×2, in 85% ethanol for 5 minutes, in 75% ethanol for 5 minutes, and in PBS for 5 minutes×2;
# 2) Pre-treatment: Each of the sections was incubated with 60 μl fresh protease K (20 μg/ml) in a humidified chamber at 37° C. for 20 minutes; and then rinsed with PBS for 2 minutes×2;
# 3) Elimination of endogenous peroxidases: The sections were treated with 3% H2O2-methanol for 5 minutes and washed by PBS for 5 minutes×2;
# 4) Equilibration: Each of the sections was rinsed with 75 μl equilibration solution for 10 seconds and decanted, and the residual water was sucked off;
# 5) Addition of TdT enzyme: […] working solution was added to each of the sections immediately with the […] control untreated, and the sections were placed in a humidified chamber at 37° C. for 1 hour;
# 6) Quenching: The sections were gently shook in the quenching solution for 15 minutes, and washed by PBS for 3 minutes×3, and decanted gently;
# 7) Visualization: Each of the sections was incubated with 65 μl antidigoxin-perioxidase in a humidified chamber at room temperature for 30 minutes, and washed by PBS for 2 minutes×4. After incubation with sufficient amount of the perioxidase substrate (75 μl) for 3˜6 minutes, each of the sections was visualized by microscopy;
# 8) Counterstaining: The sections were rinsed with flowing water for 3 minutes, and subsequently stained by hematoxylin for 10 seconds, then rinsed with flowing water for 10 minutes, immersed in 95% ethanol for 10 minutes×2, immersed in 100% ethanol for 10 minutes×2; placed in xylene for 10 minutes×2; and finally mounted in neutral resin.
# The average of the indices for the four regions was regarded as the total apoptotic index for the indicated knee joint, and the average of the indices obtained from two persons was regarded as the final experimental result.
# The apoptotic index=number of positive cells in the field/total number of chondrocytes in the field×100%.
# interleukin-5 = settings: cited from earlier work
compound,measurement,setting,value
"O=c1c(-c2ccc(O[C@@H]3O[C@H](CO)[C@@H](O)[C@H](O)[C@H]3O)cc2)coc2cc(O)cc(O)c12 [HDA, 3-[4-(β-D-glucopyranosyl)-benzyl]5,7-dihydro-4H-1-benzopyran-4-one (4′,5,7-trihydroxylisoflavone-4′-D-glucoside)]","articular cartilage degeneration resulted from ovariectomy, in words",[1]; sophoricoside 10 mg/kg/day,ameliorated by the interventions other than HDA10 and HDA20
same,"articular cartilage degeneration resulted from ovariectomy, in words",[1]; sophoricoside 20 mg/kg/day,ameliorated by the interventions other than HDA10 and HDA20
same,"articular cartilage degeneration resulted from ovariectomy, in words",[1]; sophoricoside 40 mg/kg/day,effective but not able to completely reverse the degeneration
same,"articular cartilage degeneration resulted from ovariectomy, in words",[1]; sophoricoside 80 mg/kg/day,significantly more effective than OVX
same,"lesion percentage for the articular surface, total",[1]; sophoricoside 10 mg/kg/day,7.785 ± 0.547^□□ %
same,"lesion percentage for the articular surface, total",[1]; sophoricoside 20 mg/kg/day,6.622 ± 0.366^□□ %
same,"lesion percentage for the articular surface, total",[1]; sophoricoside 40 mg/kg/day,5.617 ± 0.264*^□□ %
same,"lesion percentage for the articular surface, total",[1]; sophoricoside 80 mg/kg/day,4.808 ± 0.603 %
same,"ER-α positive cells in the articular cartilage, micrograph in words",ER-α; sophoricoside 10 mg/kg/day,ER-α positive cells within the superficial layer of articular cartilage were much less
same,"ER-α positive cells in the articular cartilage, micrograph in words",ER-α; sophoricoside 20 mg/kg/day,ER-α positive cells within the superficial layer of articular cartilage were much less
same,"ER-α positive cells in the articular cartilage, micrograph in words",ER-α; sophoricoside 80 mg/kg/day,more than the OVX group and similar to normal articular cartilage
same,"positive ratio for ER-α expression in the articular chondrocytes, Total",ER-α; sophoricoside 10 mg/kg/day,49.520 ± 1.815^□□ %
same,"positive ratio for ER-α expression in the articular chondrocytes, Total",ER-α; sophoricoside 20 mg/kg/day,58.624 ± 1.707**^□□ %
same,"positive ratio for ER-α expression in the articular chondrocytes, Total",ER-α; sophoricoside 40 mg/kg/day,65.074 ± 1.306**^□□ %
same,"positive ratio for ER-α expression in the articular chondrocytes, Total",ER-α; sophoricoside 80 mg/kg/day,77.730 ± 1.125**^□□ %
same,"apoptotic cells in articular cartilage, in words",articular chondrocytes; sophoricoside 20 mg/kg/day,The interventions other than HAD20 decreased the apoptotic chondrocytes
same,"apoptotic cells in articular cartilage, in words",articular chondrocytes; sophoricoside 40 mg/kg/day,weaker
same,"apoptotic cells in articular cartilage, in words",articular chondrocytes; sophoricoside 80 mg/kg/day,less than OVX group and similar to normal articular cartilage
same,"Apoptotic index of the articular chondrocytes, lateral femur",articular chondrocytes; sophoricoside 20 mg/kg/day,10.269 ± 1.313^□ %
same,"Apoptotic index of the articular chondrocytes, lateral tibia",articular chondrocytes; sophoricoside 20 mg/kg/day,12.571 ± 1.226^□□ %
same,"Apoptotic index of the articular chondrocytes, medial femur",articular chondrocytes; sophoricoside 20 mg/kg/day,14.779 ± 1.819^□□ %
same,"Apoptotic index of the articular chondrocytes, medial tibia",articular chondrocytes; sophoricoside 20 mg/kg/day,13.125 ± 1.891^□□ %
same,"Apoptotic index of the articular chondrocytes, lateral femur",articular chondrocytes; sophoricoside 40 mg/kg/day,7.991 ± 0.943%
same,"Apoptotic index of the articular chondrocytes, lateral tibia",articular chondrocytes; sophoricoside 40 mg/kg/day,7.665 ± 0.976**^□ %
same,"Apoptotic index of the articular chondrocytes, medial femur",articular chondrocytes; sophoricoside 40 mg/kg/day,10.779 ± 1.159%
same,"Apoptotic index of the articular chondrocytes, medial tibia",articular chondrocytes; sophoricoside 40 mg/kg/day,9.581 ± 0.760*^□ %
same,"Apoptotic index of the articular chondrocytes, lateral femur",articular chondrocytes; sophoricoside 80 mg/kg/day,5.253 ± 0.923 %
same,"Apoptotic index of the articular chondrocytes, lateral tibia",articular chondrocytes; sophoricoside 80 mg/kg/day,5.509 ± 0.847 %
same,"Apoptotic index of the articular chondrocytes, medial femur",articular chondrocytes; sophoricoside 80 mg/kg/day,7.410 ± 0.872 %
same,"Apoptotic index of the articular chondrocytes, medial tibia",articular chondrocytes; sophoricoside 80 mg/kg/day,6.558 ± 1.121 %
same,"Apoptotic index of the articular chondrocytes, total",articular chondrocytes; sophoricoside 20 mg/kg/day,12.711 ± 1.178^□□ %
same,"Apoptotic index of the articular chondrocytes, total",articular chondrocytes; sophoricoside 40 mg/kg/day,9.004 ± 0.588**^□ %
same,"Apoptotic index of the articular chondrocytes, total",articular chondrocytes; sophoricoside 80 mg/kg/day,6.183 ± 0.738 %
same,inhibition of interleukin-5,interleukin-5,inhibitor of interleukin-5
